These results are taken from PMC7278358, “Kinetic parameters of human aspartate/asparagine–β-hydroxylase suggest that it has a possible function in oxygen sensing” (The Journal of Biological Chemistry, 2020).

Values joined by “and” are separate entries in the source; they are usually repeats but may differ in a detail not shown here. Equal entries are not always repeated. Where two headings read alike, the source gives them in different places.

The target in one assay is T1, human His6–AspH315–758 (Homo sapiens, UniProt Q12797).
T1 construct: a pET-28a(+) vector encoding for N-terminal His6-tagged AspH315–758 (His6–AspH315–758) was transformed into Escherichia coli BL21 (DE3) cells; made in house; host or cells: Escherichia coli BL21 (DE3)
T1 sequence (Q12797 315-758): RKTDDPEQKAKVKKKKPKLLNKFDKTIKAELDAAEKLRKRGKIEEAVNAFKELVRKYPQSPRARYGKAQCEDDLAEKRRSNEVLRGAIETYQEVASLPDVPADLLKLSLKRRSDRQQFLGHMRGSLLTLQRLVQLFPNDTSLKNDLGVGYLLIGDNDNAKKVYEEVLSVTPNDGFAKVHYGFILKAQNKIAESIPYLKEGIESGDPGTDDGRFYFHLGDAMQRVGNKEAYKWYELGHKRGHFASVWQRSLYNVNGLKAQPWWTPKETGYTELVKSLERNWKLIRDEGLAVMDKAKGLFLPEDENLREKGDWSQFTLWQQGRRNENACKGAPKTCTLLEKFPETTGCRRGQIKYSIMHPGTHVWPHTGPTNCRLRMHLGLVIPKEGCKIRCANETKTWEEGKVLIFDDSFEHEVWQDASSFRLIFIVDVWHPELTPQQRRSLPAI
Put plainly: AspH O2 dependence (variable O2 partial pressures, SPE-MS). The note with it: n = 4. The format is biochemical. On the procedure: For determining vmax^app and Km^app of AspH for O2, 2.2 μM hFX–CP101–119 (65 μl) in 50 mM HEPES (pH 7.5) were exposed in a gas-tight glass vial to variable O2 concentrations (in nitrogen; Fig. S7) using a mass flow controller ([32]). After equilibrating the atmosphere, co-factor and co-substrates were added by syringe (1.5 μl of 4.7 mM LAA and 0.99 mM 2OG in MQ-grade water and 1.5 μl of 0.99 mM FAS in MQ-grade water) followed by 2.0 μl of 3.5 μM His6–AspH315–758 in 50 mM HEPES (pH 7.5) at 20 °C. The enzyme reaction was stopped after the indicated reaction time by the addition of 15% (v/v) aqueous formic acid (4 μl) and analyzed by SPE-MS using the configurations given above; the experiments were performed in independent quadruplicates. The data were analyzed as described, and the slopes of the initial reaction rates (Fig. S7) were fitted to a Michaelis–Menten plot using nonlinear regression (GraphPad Prism 5).

Another assay concerns KDM6A. The conditions noted are these: read-out: Km app(O2); cited from earlier work. The source says:
(§1) At higher partial pressures of O2, the standard deviation among independent quadruplicates increased slightly because of efficient peptide hydroxylation requiring short reaction times; however, maximum velocities (vmax^app) were still similar within experimental error, indicating good data quality and reproducibility (Fig. S7). The AspH Km^app for O2 is high compared with the values reported for most oth ...

For assay [1], the system named is collagen prolyl 4-hydroxylases. The conditions noted are these: read-out: Km app(O2); cited from earlier work.
Source text: as §1

For assay [2], the system named is human phytanoyl-CoA hydroxylase. The note with it: read-out: Km app(O2); cited from earlier work.
Source text: as §1

The subject of another assay is PHD2. The conditions noted are these: same experimental setup, cited from earlier work; for Km: read-out: Km app for O2.
Source text: as §1

The subject of the next assay is KDM4A. The conditions noted are these: cited from earlier work.
Source text: as §1

The next assay relates to FIH. The conditions noted are these: peptide substrate HIF-1α CAD35mer, same experimental setup, cited from earlier work.
Source text: as §1

For another assay, the system named is KDM4E. The conditions noted are these: read-out: Km app(O2); cited from earlier work.
Source text: as §1

A further assay relates to KDM4C. The conditions noted are these: read-out: Km app(O2); cited from earlier work.
Source text: as §1

Setting [3] is: O2 varied, hFX–CP101–119 substrate.

A word on the Km: it is the concentration of substrate that gives half-maximal velocity. The kcat is the number of substrate molecules converted per active site and unit of time at saturation. For orientation: kcat/Km means the second-order rate constant that governs catalysis at low substrate concentration. `O=O` [O2]: on human His6–AspH315–758 (O2 in nitrogen, 100 μM LAA, 20 μM 2OG, 20 μM FAS, 2.0 μM hFX-CP101-119, 0.1 μM His6-AspH315-758, pH 7.5, 20 °C), the “Km app of AspH for O2 [%]” value amounted to 47.2 ± 8.1 % O2. Also, the vmax app on human His6–AspH315–758 (O2 varied (in nitrogen), 100 μM LAA, 20 μM 2OG, 20 μM FAS, 2.0 μM hFX–CP101–119, 0.1 μM His6–AspH315–758, 50 mM HEPES pH 7.5, 20 °C) stood at 0.0207 ± 0.0018 µM/s. Further, the Km at human His6–AspH315–758 (O2 varied (in nitrogen), 100 μM LAA, 20 μM 2OG, 20 μM FAS, 2.0 μM hFX–CP101–119, 0.1 μM His6–AspH315–758, 50 mM HEPES pH 7.5, 20 °C, O2 % converted by y[μM] = 9.026·x[%], read-out: Km app for O2) was ~426 µM and 426 µM; with KDM6A, 180 ± 40 µM; in [1], 40 µM; in assay [2], 93 ± 43 µM; with PHD2 (peptide substrate HIF-1α CODD) it was 460 ± 30 µM; in the assay with PHD2 (peptide substrate HIF-1α NODD) it was over 450 µM. Also, the Km with KDM4A (peptide substrate H3_1–15K9me3, same experimental setup, read-out: Km app for O2) is ~173 µM and 173 µM; in the assay with KDM4A (read-out: Km app(O2)) it was 57 ± 10 µM; in the assay on FIH (read-out: Km app for O2), ~110 µM and 110 µM; in the assay with KDM4E, 197 ± 16 µM; in the assay with KDM4C it was 158 ± 13 µM. Besides, the kcat was 0.23 ± 0.04 s⁻¹ on human His6–AspH315–758 (setting [3]), 0.06 ± 0.01 s⁻¹ with PHD2 (peptide substrate HIF-1α CODD), 0.028 ± 0.001 s⁻¹ in the assay on PHD2 (peptide substrate HIF-1α NODD) and 0.56 ± 0.04 s⁻¹ with FIH. Besides, the specificity constant (kcat/Km) at human His6–AspH315–758 (setting [3]) was 540 ± 130 M⁻¹ s⁻¹.
